Test results published in US8530491B2, “Antimalarial compounds with flexible side-chains” (Medicines for Malaria Venture (MMV), priority 2007, dated 2013).
In brackets after ≈: the same amount, converted by molar mass.

Assays:
Pf DHFR C59R + S108N = biological target: T1, Pf DHFR C59R + S108N (Plasmodium falciparum, UniProt A7UD81, C59R/S108N); experiment: biochemical
T1 construct: made in house; host or cells: E. coli BL21(DE3)pLysS

[1] = biological target: T2, Pf DHFR N51I + C59R + S108N (Plasmodium falciparum, UniProt A7UD81, C59R/N51I/S108N); experiment: biochemical
T2 construct: made in house; host or cells: E. coli BL21(DE3)pLysS
T2 sequence (A7UD81 whole entry N51I/C59R/S108N): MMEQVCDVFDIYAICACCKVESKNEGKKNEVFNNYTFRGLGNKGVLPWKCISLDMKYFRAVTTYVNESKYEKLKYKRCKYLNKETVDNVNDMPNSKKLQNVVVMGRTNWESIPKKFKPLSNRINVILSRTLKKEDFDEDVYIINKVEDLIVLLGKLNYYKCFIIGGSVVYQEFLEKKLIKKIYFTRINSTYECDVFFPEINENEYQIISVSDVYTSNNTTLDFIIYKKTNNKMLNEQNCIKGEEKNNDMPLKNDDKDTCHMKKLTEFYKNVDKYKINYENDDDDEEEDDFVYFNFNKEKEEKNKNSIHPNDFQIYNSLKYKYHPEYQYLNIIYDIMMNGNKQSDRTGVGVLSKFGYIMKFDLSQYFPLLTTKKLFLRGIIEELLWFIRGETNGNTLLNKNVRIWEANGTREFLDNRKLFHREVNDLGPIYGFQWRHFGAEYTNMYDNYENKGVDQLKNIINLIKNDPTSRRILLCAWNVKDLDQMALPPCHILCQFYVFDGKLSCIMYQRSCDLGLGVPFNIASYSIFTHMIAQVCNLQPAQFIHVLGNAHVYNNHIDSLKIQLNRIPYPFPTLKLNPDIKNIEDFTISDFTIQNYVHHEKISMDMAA

[2] = biological target: T3, Pf DHFR C59R + S108N + I164L (Plasmodium falciparum, UniProt A7UD81, C59R/I164L/S108N); experiment: biochemical
T3 construct: made in house; host or cells: E. coli BL21(DE3)pLysS
T3 sequence (A7UD81 whole entry C59R/S108N/I164L): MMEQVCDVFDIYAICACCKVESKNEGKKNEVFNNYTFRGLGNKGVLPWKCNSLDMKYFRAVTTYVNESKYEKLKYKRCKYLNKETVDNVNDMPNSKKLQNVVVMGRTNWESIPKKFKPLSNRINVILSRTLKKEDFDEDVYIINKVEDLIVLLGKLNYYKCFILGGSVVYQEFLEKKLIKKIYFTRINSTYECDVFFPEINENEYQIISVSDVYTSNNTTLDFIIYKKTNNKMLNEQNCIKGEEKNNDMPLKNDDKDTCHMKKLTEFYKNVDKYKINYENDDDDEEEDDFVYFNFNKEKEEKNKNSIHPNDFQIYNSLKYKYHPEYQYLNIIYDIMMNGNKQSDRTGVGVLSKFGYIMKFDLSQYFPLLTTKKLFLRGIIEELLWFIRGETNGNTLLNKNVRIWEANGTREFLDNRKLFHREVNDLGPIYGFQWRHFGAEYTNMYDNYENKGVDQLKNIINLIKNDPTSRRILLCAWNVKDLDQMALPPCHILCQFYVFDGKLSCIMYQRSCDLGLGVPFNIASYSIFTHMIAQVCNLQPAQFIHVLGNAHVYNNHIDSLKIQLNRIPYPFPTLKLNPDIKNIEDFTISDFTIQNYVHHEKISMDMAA

[3] = system: P. falciparum TM4/8.2 (wild type); experiment: In vitro anti-plasmodial activity, [3H]-hypoxanthine incorporation; assay type: cell-based, Plasmodium falciparum; settings: Plasmodium falciparum, read-out: IC50-P. falciparum TM4/8.2 (WT), TM4/8.2
Pf DHFR WT = biological target: T4, Pf DHFR WT (Plasmodium falciparum, UniProt A7UD81); experiment: Pf DHFR enzyme inhibition (Ki), wild type; assay type: biochemical
T4 construct: made in house; host or cells: E. coli BL21(DE3)pLysS
T4 sequence (A7UD81 1-608): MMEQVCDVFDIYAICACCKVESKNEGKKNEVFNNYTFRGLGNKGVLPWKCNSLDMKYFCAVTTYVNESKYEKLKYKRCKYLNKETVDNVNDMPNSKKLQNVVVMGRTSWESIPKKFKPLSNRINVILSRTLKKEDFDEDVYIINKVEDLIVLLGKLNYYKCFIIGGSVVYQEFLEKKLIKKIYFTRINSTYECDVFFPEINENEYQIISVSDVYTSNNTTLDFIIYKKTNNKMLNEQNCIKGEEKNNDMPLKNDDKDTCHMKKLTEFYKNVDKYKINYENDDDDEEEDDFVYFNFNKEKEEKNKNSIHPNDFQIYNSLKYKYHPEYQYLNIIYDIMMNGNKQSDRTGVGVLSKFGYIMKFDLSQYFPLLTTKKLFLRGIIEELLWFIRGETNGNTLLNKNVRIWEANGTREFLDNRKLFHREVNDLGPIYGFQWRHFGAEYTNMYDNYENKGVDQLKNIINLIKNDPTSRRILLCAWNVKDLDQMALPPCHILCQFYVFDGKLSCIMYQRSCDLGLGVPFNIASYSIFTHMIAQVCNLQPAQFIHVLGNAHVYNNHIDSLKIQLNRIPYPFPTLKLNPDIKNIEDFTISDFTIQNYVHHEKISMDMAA

[4] = biological target: T5, Pf DHFR N51I + C59R + S108N + I164L (Plasmodium falciparum, UniProt A7UD81, C59R/I164L/N51I/S108N); experiment: biochemical
T5 construct: made in house; host or cells: E. coli BL21(DE3)pLysS
T5 sequence (A7UD81 whole entry N51I/C59R/S108N/I164L): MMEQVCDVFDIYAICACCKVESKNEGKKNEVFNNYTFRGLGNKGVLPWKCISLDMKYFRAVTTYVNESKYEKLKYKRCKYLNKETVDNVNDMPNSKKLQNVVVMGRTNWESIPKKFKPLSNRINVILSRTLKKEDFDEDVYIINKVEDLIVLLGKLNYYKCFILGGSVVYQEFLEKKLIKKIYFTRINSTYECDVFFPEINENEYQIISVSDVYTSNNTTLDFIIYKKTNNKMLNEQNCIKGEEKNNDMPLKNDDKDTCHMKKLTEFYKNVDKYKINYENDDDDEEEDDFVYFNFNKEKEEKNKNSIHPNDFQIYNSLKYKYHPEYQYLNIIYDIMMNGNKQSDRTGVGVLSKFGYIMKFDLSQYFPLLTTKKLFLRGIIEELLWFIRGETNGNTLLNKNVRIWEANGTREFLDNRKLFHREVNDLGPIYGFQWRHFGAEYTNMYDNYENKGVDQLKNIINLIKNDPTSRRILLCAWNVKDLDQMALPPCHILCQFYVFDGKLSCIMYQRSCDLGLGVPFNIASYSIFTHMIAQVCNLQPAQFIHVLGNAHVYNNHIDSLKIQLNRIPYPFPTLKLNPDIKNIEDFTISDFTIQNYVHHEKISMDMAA

S. aureus = experiment: Antibacterial activity, minimal inhibitory concentration on agar plates; assay type: cell-based; settings: Staphylococcus aureus; complete inhibition of growth on agar plates
[5] = Oral bioavailability and pharmacokinetics in male Sprague Dawley rats; assay type: in vivo; settings: for Oral BA: i.v. and oral dosing; for Vd: intravenous; for clearance: read-out: i.v. CL(plasma)
Description: Rats had free access to water throughout the pre- and post-dose sampling period, and access to food was re-instated 4 hours post-dosing. Test compounds were administered intravenously as a 5 minute constant rate infusion (1.0 mL per rat) and orally by gavage (1.0 mL per rat). The IV formulations were typically buffered aqueous solutions containing a co-solvent if required for solubilization. The oral formulations were prepared as suspensions in hydroxypropylmethyl cellulose or carboxymethyl cellulose, each with the addition of Tween 80 and benzyl alcohol. Samples of arterial blood and total urine were collected up to 24 hours post-dose. Arterial blood was collected directly into borosilicate vials (at 4° C.) containing heparin, a protease inhibitor cocktail, potassium fluoride, and EDTA to minimise the potential for ex vivo degradation of the test compound in blood/plasma samples. Once collected, blood samples were centrifuged, supernatant plasma was removed and stored at −20° C., and plasma concentrations of test compound were determined by LCMS.

P. chabaudi AS = experiment: Standard 4-day Peters' test against P. chabaudi AS in mice; assay type: in vivo, Plasmodium chabaudi; settings: Plasmodium chabaudi, 96 h, oral, 4-day Peters' test; for ED50: 50% reduction in parasitaemia; for ED90: 90% reduction in parasitaemia
Description: (§1) Briefly, 20 gr CD1 male mice (Charles Rivers, UK) were kept in specific pathogen-free conditions and fed ad libitum. For oral administration, compounds were dissolved in standard suspending formula (SSV) [0.5% sodium carboxymethylcellulose, 0.5% benzyl alcohol, 0.4% Tween 80, 0.9% NaCl (all Sigma)] and for intraperitoneal or subcutaneous administration compounds were dissolved in 0.5% w/v hydroxypropylmethylcellulose, 0.4% v/v Tween 80, 0.5% V/v benzyl alcohol in de-ionised water]. Mice were infected intravenously with 4×10^6 infected red cells and treated orally (p.o.) with 0.2 ml of a solution of the test compounds two hours (day 0) and on days 1, 2 and 3 post-infection. Parasitaemia was determined by microscopic examination of Giemsa stained blood films taken on day 4. Microscopic counts of blood films from each mouse were processed using GraphPad Prism 4 (GraphPad Software, Inc., CA, USA) and expressed as percentages of inhibition from the arithmetic mean parasitaemias of each group in relation to the untreated group. Compounds were tested in an initial screening at 30 mg/kg/day against P. chabaudi AS (non-resistant) over the period described and percentages of inhibition calculated in relation to the untreated controls. Compounds giving 80% inhibition or above were then tested in the same model under a range of doses over the period described in order to obtain dose response curves and calculate their ED50 and ED90 values. […] From the ED90 values is clear that a number of compounds have exquisite activity in this model and are also tested in P. chabaudi ASP and P. berghei ANKA.

E. coli = experiment: Antibacterial activity, minimal inhibitory concentration on agar plates; assay type: cell-based; settings: Escherichia coli; complete inhibition of growth on agar plates
[6] = Cytotoxicity in mammalian cells; assay type: cell-based; settings: African green monkey, Vero cells (African green monkey kidney epithelial cells)
P. berghei ANKA = experiment: Standard 4-day Peters' test against P. berghei ANKA in mice; assay type: in vivo, Plasmodium berghei; settings: oral, lethal non-resistant strain
Description: as §1

P. chabaudi ASP = experiment: Standard 4-day Peters' test against P. chabaudi ASP (pyrimethamine-resistant) in mice; assay type: in vivo, Plasmodium chabaudi
Description: as §1

T1 sequence (A7UD81 whole entry C59R/S108N): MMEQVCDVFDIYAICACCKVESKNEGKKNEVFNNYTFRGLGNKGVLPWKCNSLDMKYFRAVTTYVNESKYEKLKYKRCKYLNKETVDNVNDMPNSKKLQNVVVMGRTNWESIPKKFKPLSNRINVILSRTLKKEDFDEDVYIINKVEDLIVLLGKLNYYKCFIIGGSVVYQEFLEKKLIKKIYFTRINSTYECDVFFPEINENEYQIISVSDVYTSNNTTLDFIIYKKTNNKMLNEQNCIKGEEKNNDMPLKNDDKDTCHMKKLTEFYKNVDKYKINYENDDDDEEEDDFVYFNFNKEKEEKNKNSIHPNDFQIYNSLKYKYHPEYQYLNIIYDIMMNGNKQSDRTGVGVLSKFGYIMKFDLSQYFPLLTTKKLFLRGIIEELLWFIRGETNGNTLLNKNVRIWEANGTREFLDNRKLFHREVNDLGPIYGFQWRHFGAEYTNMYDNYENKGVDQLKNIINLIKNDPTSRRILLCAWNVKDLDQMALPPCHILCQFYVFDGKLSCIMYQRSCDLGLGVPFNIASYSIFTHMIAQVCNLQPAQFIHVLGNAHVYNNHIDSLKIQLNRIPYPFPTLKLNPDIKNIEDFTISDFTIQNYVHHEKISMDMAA

SMILES | Ki (Pf DHFR C59R + S108N) | Ki [1] | Ki [2] | IC50 [3] | Ki (Pf DHFR WT) | Ki [4] | MIC (S. aureus) | Oral BA [5] | Vd ([5]; rat, plasma) | clearance ([5]; rat, plasma, iv, i.v. dosing) | half-life ([5]; rat, plasma, iv, i.v. dosing, read-out: i.v. t1/2 (converted)) | ED50 (P. chabaudi AS) | ED90 (P. chabaudi AS) | MIC (E. coli) | IC50 [6] | ED50 (P. berghei ANKA; Plasmodium berghei) | ED90 P. berghei ANKA (P. berghei ANKA) | ED50 (P. chabaudi ASP; Plasmodium chabaudi, po, read-out: ED50 P. chabaudi ASP) | ED90 P. chabaudi ASP (P. chabaudi ASP; oral, pyrimethamine-resistant strain)
CCc1nc(N)nc(N)c1OCCCOc1ccnc2ccc(Cl)cc12 [Compound P149, 2,4-diamino-6-ethyl-5-(3-(6-chloro-quinolin-4-yloxy)propoxy)pyrimidine] | 2.37 ± 0.16 nM | 3.4 ± 0.15 nM | 3.66 ± 0.48 nM | 3.2 ± 0.7 nM | 1.05 ± 0.18 nM | 4.23 ± 1.06 nM | 1 to 10 µM (≈ 0.374 to 3.74 µg/mL) | 10 % of dose | 51.2 L/kg | 66.3 mL/min/kg | 24.3 h | 0.01 mg/kg | 0.02 mg/kg | 10 to 50 µM (≈ 3.74 to 18.7 µg/mL) |  |  |  |  | 
CCc1nc(N)nc(N)c1OCCCOc1ccccc1OCCCC(=O)O [Compound P135, 2,4-diamino-6-ethyl-5-(3-(2-(3-carboxypropoxy)phenoxy)propoxy)pyrimidine] | 0.98 ± 0.003 nM | 1.2 ± 0.05 nM | 2.54 ± 0.04 nM | 1.6 ± 0.6 nM | 0.72 ± 0.03 nM | 3.47 ± 0.09 nM | > 50 µM | 7.0 % of dose | 1.6 L/kg | 49.1 mL/min/kg |  | 2 mg/kg | 5.2 mg/kg | > 50 µM | > 10000 nM |  |  |  | 
CCc1nc(N)nc(N)c1OCCCOc1ccnc2ccccc12 [Compound P113, 2,4-diamino-6-ethyl-5-(3-(quinolin-4-yloxy)propoxy)pyrimidine] | 1.86 ± 0.11 nM | 1.82 ± 0.17 nM | 3.06 ± 0.21 nM | 4 ± 3 nM | 1.21 ± 0.17 nM | 4.33 ± 0.28 nM |  | <2.0 % of dose |  |  |  | 0.006 mg/kg | 0.01 mg/kg |  | 119 nM | 0.01 mg/kg | 0.03 mg/kg | 0.003 mg/kg | 0.01 mg/kg
